From patent publication US20230220410A1, “PLANTS TOLERANT TO BROAD RANGE OF PATHOGENS” (RAMOT AT TEL-AVIV UNIVERSITY LTD., priority 2020, published 2023)
Entries after “also recorded” stand apart in the source; their conditions may differ. Where two headings read alike, the source gives them in different places.

Assays:
WT (Col-0) Arabidopsis [1] = test: Root elongation / root growth-rate inhibition on MS with the substance, wild type; format: in vivo, Arabidopsis thaliana
Source text: (§1) The Arabidopsis strains used were all in the Columbia-0 (Col-0) background. The gain of function lines psx00478 and psx08098 containing pBIG2113SF binary vector, expressing a single cDNA under 35S promoter, were ordered from FOX library (Takanari I. et al., 2006. ibid). Transgenic lines were generated using pBINPLUS (van Engelen F A et al., 1995. Transgenic Research 4, 288-290), in which AT2G19750 gene was cloned downstream of the 35S promoter, and transformed to WT Col-0 via Agrobacterium cv3101 mediated transformation. The presence of the transgene was confirmed by PCR with specific primers for S30. Seeds were cultivated in Petri plates using medium containing 0.8% agar, half-strength Murashige and Skoog salts (MS), and 1% sucrose, pH 5.7. The Petri plates were placed in chambers at 22° C. under light/dark conditions of 16 h white light at 75 mol m^2 sec^−1 and 8 h darkness, at 55% relative humidity. For root phenotype experiments, plates were placed vertically in the chambers.
To calculate the percentage of growth inhibition, seeds were germinated on MS containing the following concentrations of I3C: 0, 50, 100, 200, 300, 400, 500 and 750 μM. The root length of the seedlings was measured at days 3, 4, 5, 7 and 10. To calculate the percentage of growth inhibition, the slope of the regression lines for each concentration was used in the next equation: […]
To calculate the degree of tolerance to I3C, growth rates of WT and the I3CT1 strains were determined for increasing concentrations of I3C. Root length was measured at several time points over increasing I3C concentrations (FIG. 3). The growth rate of the WT and the I3CT1 transgenic lines was similar on MS; however, a growth rate of 3 and 2.3 times faster was observed on 400 μM I3C for the transgenic lines I3CT1^2 and I3CT1^8098 respectively. […] However, the growth rate of the WT was inhibited by 50% at about 50 μM while the growth rate of the I3CT1^2 and I3CR1^8098 transgenic lines was inhibited by 50% only when the I3C concentration was 300 μM and 200 μM respectively.
(§2) To test if overexpression of S30 causes tolerance specifically to I3C, or rather causes general tolerance to external chemical stress, root growth was tested with the addition of three groups of molecules to the growth medium: two subcategories of indole derivates: 1. Breakdown products of indol-3-acetaldoxime such as I3C, indol-3-acetic acid (IAA), and 3—Indoleacetonitril (IAN); and 2. breakdown products of I3C such as 3, 3Diindolylmethane (DIM), indole-3-carboxaldehyde (I3xA), and methyl Indole 3-carboxylate (MI3Cx). The third group contains benzoxazinoids: 2-Benzoxazolinon (BOA) and 6-Methoxy-2-benzoxazolinone (mBOA). Benzoxanoids are chemically unrelated to I3C, but with similar function of plant defense in gramineae (FIG. 4A). WT and the I3CT1 transgenic strains were assayed for root growth on 50% and 90% inhibition concentrations (IC) of the above molecules (Table 3).

I3CT1 transgenic strains = test: Root growth of I3CT1 on 50% and 90% inhibition concentrations of plant defense molecules; format: in vivo, Arabidopsis thaliana; details: FIG. 4B
Description: FIG. 4A: Plant defense molecules assayed: Breakdown products of indol-3-acetaldoxime (upper left panel), Breakdown products of I3C (lower panel), and benzoxazinoids (right panel). FIG. 4B: I3CT1 and WT were grown on 50% and 90% inhibition concentrations of the chemicals shown in μM. Data represent mean±SE.
as §2

[2] = tested on: I3CT1^2 transgenic line (S30 overexpressing); test: Root growth-rate inhibition by I3C, transgenic line I3CT1^2; format: in vivo, Arabidopsis thaliana; details: I3CT1^2, root growth rate
Source text: as §1, with “For root phenotype experiments, plates were placed vertically in the chambers.” left out
(§3) To calculate the percentage of growth inhibition, seeds were germinated on MS containing the following concentrations of I3C: 0, 50, 100, 200, 300, 400, 500 and 750 μM. The root length of the seedlings was measured at days 3, 4, 5, 7 and 10. […]
(§4) To calculate the degree of tolerance to I3C, growth rates of WT and the I3CT1 strains were determined for increasing concentrations of I3C. Root length was measured at several time points over increasing I3C concentrations (FIG. 3). […]

WT (Col-0) Arabidopsis [3] = details: 400 μM I3C; cited from earlier work
WT (Col-0) Arabidopsis [4] = test: Root length on I3C, IAA and mixtures (auxin antagonism), WT; format: in vivo, Arabidopsis thaliana
Description: I3CT1^2, I3CT1^8098 (FIG. 10A, designated as ICT1) and WT (FIG. 10B) plants were grown on three concentrations of I3C (50, 200, 500 μM), three concentrations of IAA (50, 200, 500 nM) and mixtures between the two. Root length was measured, and the mean root length of the transgenic lines I3CT1^2, I3CT1^8098 was calculated (presented as “I3CT1”). Three-way ANOVA was performed after SQRT transformation to obtain a normal distribution. FIG. 10C: The model of inhibition.
It was previously shown that I3C acts as an auxin antagonist on TIR1 (Katz et al., 2015b, ibid).

[5] = tested on: I3CT1^8098 transgenic line (S30 overexpressing); test: Root growth-rate inhibition by I3C, transgenic line I3CT1^8098; format: in vivo, Arabidopsis thaliana; details: I3CT1^8098 (printed I3CR1^8098)
Source text: as §1, with “For root phenotype experiments, plates were placed vertically in the chambers.” left out
as §3, §4

[6] = Arabidopsis thaliana, root elongation, Table 3, read-out: substance concentration inhibiting root elongation by 50%
[7] = read-out: I3C concentration at which growth rate was inhibited by 50%
[8] = root elongation, Table 3, read-out: substance concentration inhibiting root elongation by 50%

| SMILES | substance concentration inhibiting root elongation by 90% (WT (Col-0) Arabidopsis [1]; root elongation, Table 3) | IC50 (WT (Col-0) Arabidopsis [1]; [6]) | tolerance of I3CT1 to the chemical (root growth) (I3CT1 transgenic strains) | IC50 (WT (Col-0) Arabidopsis [1]; [8]) | other results |
| --- | --- | --- | --- | --- | --- |
| O=c1[nH]c2ccccc2o1 [BOA, 2-Benzoxazolinon] | 400 µM |  |  |  | IC50 (WT (Col-0) Arabidopsis [1]; Arabidopsis thaliana, read-out: substance concentration inhibiting root elongation by 50%): 50 µM |
| c1ccc2c(Cc3c[nH]c4ccccc34)c[nH]c2c1 [DIM, 3,3′-Diindolylmethane] | 200 µM | 60 µM | tolerance of the I3CT1 line was limited to three chemicals |  |  |
| OCc1c[nH]c2ccccc12 [I3C, Indole 3-carbinol] | 400 µM |  | tolerance of the I3CT1 line was limited to three chemicals | 100 µM | I3C concentration of 90% inhibition [2]: 750 µM; IC50 [2, 7]: 300 µM; inhibition of root elongation (WT (Col-0) Arabidopsis [3]): 95%; I3C concentration of 90% inhibition (WT (Col-0) Arabidopsis [1]; WT, root growth rate): 400 µM; IC50 (WT (Col-0) Arabidopsis [1]; WT, root growth rate, read-out: I3C concentration at which growth rate was inhibited by 50%): ~50 µM; I3C concentration of maximum inhibition (WT (Col-0) Arabidopsis [1]; all strains (WT and I3CT1 lines)): 750 µM; inhibition of root elongation by I3C itself (WT (Col-0) Arabidopsis [4]; 500 μM I3C): 95%; rescue of IAA root-elongation inhibition by I3C (WT (Col-0) Arabidopsis [4]; 50 and 200 μM I3C added to IAA, WT): rescues the IAA phenotype; I3C concentration of 90% inhibition [5]: 500 µM; IC50 [5, 7]: 200 µM |
| O=Cc1c[nH]c2ccccc12 [I3xA, Indole 3-Carboxalldehyde] | 300 µM |  | did not exhibit any pronounced tolerance | 140 µM |  |
| O=C(O)Cc1c[nH]c2ccccc12 [IAA, Indole-3-acetic acid] | 200 µM | 50 µM | tolerance of the I3CT1 line was limited to three chemicals; also recorded: slight tolerance |  |  |
| N#CCc1c[nH]c2ccccc12 [IAN, Indole 3-acetonitril] | 160 µM |  | did not exhibit any pronounced tolerance | 50 µM |  |
| COC(=O)c1c[nH]c2ccccc12 [MI3Cx, Methyl Indole 3-Carboxylate] | 375 µM | 200 µM | did not exhibit any pronounced tolerance |  |  |
| COc1ccc2[nH]c(=O)oc2c1 [mBOA, 6-Methoxy-2-benzoxazolinone] | 400 µM | 50 µM |  |  |  |
